Test results reported in paper PMC5407854, “Inhibitor of ppGalNAc-T3-mediated O-glycosylation blocks cancer cell invasiveness and lowers FGF23 levels” (eLife, 2017).

T1: ppGalNAc-T3 (Homo sapiens, UniProt Q14435)
T1 construct: gene GALNT3; purified lumenal domain (containing catalytic and lectin domains)
T1 sequence (Q14435 38-633 limits assumed): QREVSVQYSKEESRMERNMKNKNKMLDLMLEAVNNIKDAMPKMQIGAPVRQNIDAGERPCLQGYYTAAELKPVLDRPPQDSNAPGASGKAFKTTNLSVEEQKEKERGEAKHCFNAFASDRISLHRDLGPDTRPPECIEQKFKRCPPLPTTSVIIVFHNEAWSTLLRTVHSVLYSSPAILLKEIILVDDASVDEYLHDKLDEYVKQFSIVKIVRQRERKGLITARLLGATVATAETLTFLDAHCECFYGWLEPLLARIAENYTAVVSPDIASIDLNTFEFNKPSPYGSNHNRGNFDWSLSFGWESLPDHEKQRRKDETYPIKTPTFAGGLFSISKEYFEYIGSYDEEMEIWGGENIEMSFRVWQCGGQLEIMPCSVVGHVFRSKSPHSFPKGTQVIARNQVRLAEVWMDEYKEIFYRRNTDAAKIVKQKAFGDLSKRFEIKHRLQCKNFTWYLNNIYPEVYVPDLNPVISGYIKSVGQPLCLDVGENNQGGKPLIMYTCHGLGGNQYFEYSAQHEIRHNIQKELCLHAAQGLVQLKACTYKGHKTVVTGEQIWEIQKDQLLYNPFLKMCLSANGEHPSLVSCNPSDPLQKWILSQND

B1: FGF23: T3Inh-1 (protein)
parent chain: MLGARLRLWVCALCSVCSMSVLRAYPNASPLLGSSWGGLIHLYTATARNSYHLQIHKNGHVDGAPHQTIYSALMIRSEDAGFVVITGVMSRRYLCMDFRGNIFGSHYFDPENCRFQHQTLENGYDVYHSPQYHFLVSLGRAKRAFLPGMNPPPYSQFLSRRNEIPLIHFNTPIPRRHTRSAEDDSERDPLNVLKPRARMTPAPASCSQELPSAEDNSPMASDPLGVVRGGRVNTHAGGTGPEGCRPFAKFI

Assays:
[1] = molecular target: T1, ppGalNAc-T3; test: intrinsic tryptophan fluorescence quenching; also UDP-Glo inhibition of purified enzyme (IC50 […]); assay type: binding
[2] = anti-FLAG immunoblot of cell lysates, with or without chloroquine; conditions: glycan lost; control: untreated

| Molecule | Kd [1] | expression_or_secretion [2] |
| --- | --- | --- |
| O=C(Nc1ccc(Nc2ccncc2)cc1)c1ccc(Nc2ccnc3ccc([N+](=O)[O-])cc23)cc1 [compound 1614, T3Inh-1] | ~17 µM | – |
| B1 | – | no change |
